Assay results reported in patent US7476729B2, “Dbait and uses thereof” (Institut Curie, priority 2003, dated 2009).

Tests used:
GMA32 cells = assay: FACS analysis of sub-G1 cells (cell death) in GMA32 cells; format: cell-based, Chinese hamster; settings: GMA32, 4.5 μg Dbait with lipofectamine, no irradiation or mitotic inhibitor
Protocol: The GMA32 Chinese hamster fibroblast cells permissive of DNA breaks were maintained in MEM medium (Gibco) supplemented with 1 mM sodium pyruvate, 2 mM glutamine, 1×MEM non essential amino acids, 1× penicillin/streptomycin and 10% horse serum. Typically, 2×10^5 to 4×10^5 cells were seeded in medium without antibiotics, in 5 cm diameter Petri dishes 24 hours before the transfection of different Dbait molecules (4.5 μg) with lipofectamine 2000 (LifeTechnologies) as transfection agent (in a 1:3 ratio), according to the manufacturer's instructions. At the end of the transfection the cells were either irradiated (4 Gy) or treated with mitotic inhibitors: nocodazole (200 nM), navelbine (100 nM) or taxol (200 nM).
About 16 hour later the drug was removed and the cells were allowed to recover. Cell irradiation was performed with γ-rays from a ^137Cs source. After a 24 hours recovery, the cells were collected and used either for FACS, western blot analyses or to determine the clonogenicity (survival) and the effect of each treatment.
The M1 phase represents the percentage of cells in sub-G1 stage indicative of cell death.
The experiments were performed with a FACS calibur flow cytometer (Becton Dickinson). Cells were collected, suspended in 1 ml of cold GM buffer (6.5 mM glucose, 137 mM NaCl, 5.4 mM KCl, 2 mM Na2HPO4, 1 mM KHPO4, 0.5 mM EDTA), and stored at 4° C. for at least 2 hours after addition of 3 ml of cold 100% ethanol.
At that stage, cells were eventually washed with 1×PBS, then stained for 30 minutes at room temperature in PI solution (50 μg/ml propidium iodide, 25 μg/ml RNase A in 1×PBS buffer). 10,000 events were analyzed with Cellquest software, and cell aggregates were gated out. The percentage of cells with a sub-G1 content of DNA was scored.

SK28 xenografted tumors = assay: Radiosensitization of SK28 melanoma xenografted on nude mice; format: in vivo; settings: SK, 6 × 5 Gy, 6 × 60 μg (3 nmole); for Relative risk: reference C* (Mock + irradiation)
Protocol: The protocol of Hep2 was described in FIG. 4.3. Other tumors were treated by a modified protocol where a 5 Gy fractionated irradiation was applied in three consecutive days, and followed four day rest, and the treatment was repeated once. The total irradiation dose (6×5 Gy) is equal to that of the protocol used to treat Hep2 tumor (15×2 Gy).
Descriptive analyses of the tumor response were performed for each treatment and each tumor type. Day 1 was the day of the first treatment session. […] Median lifetime was estimated according to the Kaplan-Meier method. TGD was calculated by subtracting the mean tumor volume quadrupling time of the control group from tumor volume quadrupling times of individual mice in each treated group. The mean TGD was calculated for each treated group using the individual measurements.
The analysis used S-Plus 6.2 version software (MathSoft Inc., Seattle, Wash.) and statEL (ad Science, Paris, France). A global Log Rank was first performed for each group with a same tumor type. Then treatments with Dbait were compared to the mock-treated control. All tests were considered significant at the 0.05 significance level.

DNA-PK = molecular target: T1, DNA-PK (Homo sapiens, UniProt P12956+P13010+P78527); assay: DNA-dependent protein kinase (DNA-PK) activity assay in Hep2 nuclear extract; format: biochemical; settings: 2 μg Dbait, 1.5 μg Hep2 nuclear protein extract
T1 construct: Increasing amounts of Hep2 nuclear extract (cleaned of endogenous DNA by DEAE-Sepharose filtration) were assayed; endogenous in cells; host or cells: Hep2 cells (nuclear extract, DNA removed by DEAE-Sepharose filtration)
Protocol: DNA-PK activity was monitored using the kit SignaTECT DNA-dependent Protein Kinase Assay System (Promega, Madison, USA). Increasing amounts of Hep2 nuclear extract (cleaned of endogenous DNA by DEAE-Sepharose filtration) were assayed in the presence of 250 nM Dbait. Extract, biotinylated peptide substrate and various amount of nuclear extract were incubated 5 minutes at 30° C. with (γ-^32P)ATP according to manufacturer indications. The biotinylated substrate was capture on streptavidine membrane, washed and counted in a scintillation counter. Percentage of phosphorylation is calculated by dividing the bound radioactivity by the total count of (γ-^32P)ATP per sample. Reactions (10 μl) were carried out in 60 mM KOAc, 100 μg/ml BSA, 0.5 mM Mg(Cl)2, 1 μl T4 DNA ligase 10× buffer (Promega, Madison, USA). Nuclear extract and Dbait were incubated 2 minutes before addition of ^32P-labeled DNA (10 ng). Samples were incubated various time at 37° C. before ligation being stopped by 20 mM EDTA and 1 mg/ml Proteinase K addition. Ligation products were analyzed by electrophoresis through 0.7% agarose gels followed by autoradiography and quantification by phosphorimaging.
The kinase activity depended directly on the length and structure of the double-stranded ‘stem’ of the Dbait molecule. […] In addition, various backbone modifications (phosphothioate, methyphosphonate, 3′-3′ linkage) at the free blunt end (up to 3-bp), as well as the internally tagged ligands (e.g. fluorescent dyes), are capable of activating DNA-PK activity.

| Substance | cell death (cells in sub-G1 stage) (GMA32 cells) | Mean % TGD (SK28 xenografted tumors) [%] | Mean TGD (SK28 xenografted tumors) | Median survival time (SK28 xenografted tumors) [days] | Relative risk (SK28 xenografted tumors) | DNA-PK activation (kinase activity) (DNA-PK) | Number of cured mice (SK28 xenografted tumors) |
| --- | --- | --- | --- | --- | --- | --- | --- |
| Dbait8H: hairpin double strand DNA with a stem of 8-bp (DNA ACGCACGG; DNA, backbone not given here; hairpin, hexaethyleneglycol loop, 3-bp phosphorothioate at free blunt end) | failed to trigger cell death | 194 | 19 | 76 | 0.68 | inefficient |  |
| Dbait32ss: 32-nt single strand DNA (SEQ ID NO: 1) (DNA ACGCACGGGTGTTGGGTCGTTTGTTCGGATCT; DNA, backbone not given here) | moderate |  |  |  |  |  |  |
| Dbait16H: hairpin double strand DNA with a stem of 16-bp (DNA ACGCACGGGTGTTGGG; DNA, backbone not given here; hairpin DNA with hexaethyleneglycol loop, 3-bp phosphorothioate at free blunt end) | intermediate |  |  |  |  | inefficient |  |
| Dbait32H: hairpin double strand DNA with a stem of 32-bp, hexaethyleneglycol linker, phosphorothioate at the free blunt end (DNA ACGCACGGGTGTTGGGTCGTTTGTTCGGATCT; DNA, backbone not given here; hairpin, hexaethyleneglycol loop, 3-bp phosphorothioate at free blunt end) | Significant cell death | 422 | 64 | 176 | 0.22 |  | 2 |
